According to US20080312211A1, “Antibacterial Pyrrolopyridines, Pyrrolopyrimidines and Pyrroloazepines-154” (ASTRAZENECA AB, priority 2005, published 2008):

Tests used:
Streptococcus pneumoniae = test: Bacterial susceptibility testing in liquid media (MIC); type: cell-based; set-up: unit not given here; details: lowest concentration reducing growth by 80% or more; 37 degrees C., 24 hrs
Procedure: Compounds were tested for antimicrobial activity by susceptibility testing in liquid media. Compounds were dissolved in dimethylsulfoxide and tested in 10 doubling dilutions in the susceptibility assays. The organisms used in the assay were grown overnight on suitable agar media and then suspended in a liquid medium appropriate for the growth of the organism. The suspension was a 0.5 McFarland and a further 1 in 10 dilution was made into the same liquid medium to prepare the final organism suspension in 100 μL. Plates were incubated under appropriate conditions at 37 degrees C. for 24 hrs prior to reading. The Minimum Inhibitory Concentration was determined as the lowest drug concentration able to reduce growth by 80% or more.

COC(=O)c1cnc(N2CCC(n3c(=O)[nH]c4c(C#N)c(C)[nH]c4c3=O)CC2)s1 [Example 1, Methyl 2-[4-(7-cyano-6-methyl-2,4-dioxo-1,2,4,5-tetrahydro-3H-pyrrolo[3,2-d]pyrimidin-3-yl)piperidin-1-yl]-1,3-thiazole-5-carboxylate]
melting point: > 345 °C (dec.)

COC1CN(c2ncc(C(=O)O)s2)CCC1n1ccc2c(Cl)c(C)[nH]c2c1=O (stereo not drawn) [Example 22, 2-[3,4-cis-4-(3-Chloro-2-methyl-7-oxo-1,7-dihydro-6H-pyrrolo[2,3-c]pyridin-6-yl)-3-methoxypiperidin-1-yl]-1,3-thiazole-5-carboxylic acid]
MIC (Streptococcus pneumoniae): 50
